The values below come from US20230116039A1, “DISINFECTION SOLUTION WITH TWO-PART FORMULATION” (ASP GLOBAL MANUFACTURING GMBH, priority 2020, published 2023).

Series [1] is described as follows: Stability of ready-to-use PAA solution, pH adjusted with disodium phosphate, with or without chelant, heated at 56° C. for one hour. Type of series: physicochemical. The settings on record: initial PAA 0.35%, water hardness 200 ppm, pH 5 with disodium phosphate. The text has this: (§1) In these studies, peracetic acid (PAA) was combined with hard water having a water hardness of 200 parts per million (“ppm”) such that the resulting solution included a 0.35% concentration of PAA. The pH of the solution was adjusted to 5 using a pH modifier. In a first batch of the solution, the pH modifier used was ethanolamine. In a second batch of the solution, the pH modifier used was disodium phosphate. Test specimens from these two batches were created by individually adding chelants thereto. The chelants used in these studies are those used for removing ions (e.g. Calcium and Magnesium) from hard water, and included tetrasodium EDTA, TRILON® M (methylglycinediacetic acid trisodium salt (MGDA-Na3)), TRILON® C (diethylenetriaminepentaacetic acid pentasodium salt (DTPA-Na5)), sodium citrate, and DISSOLVINE® GL (glutamic acid diacetic acid tetrasodium salt (GLDA-Na4)). Test specimens from these two batches were also created that lacked any such chelants. In some instances, test specimens were created for different concentrations of certain of these chelants. Table 1 reflects test specimens made from the first batch of the solution. Table 2 reflects test specimens made from the second batch of the solution. The tables also reflect the concentration of each chelant in each specimen as a percentage. Each specimen was heated at 56° C. for one hour. At the end of the hour, the PAA concentration was determined. The final concentration of PAA is provided in Table 1 and Table 2 alongside the change in the PAA concentration as determined at the end of the hour (“Δ PAA %”).

Series [2] is described as follows: Stability of ready-to-use PAA solution, pH adjusted with ethanolamine, with or without chelant, heated at 56° C. for one hour. The settings on record: initial PAA 0.35%, water hardness 200 ppm, pH 5 with ethanolamine. Type of series: physicochemical.
Source text: as §1

Structures are written as SMILES.

For the compound `O=C([O-])CN(CCN(CC(=O)[O-])CC(=O)[O-])CC(=O)[O-].[Na+].[Na+].[Na+].[Na+]` [Na4EDTA, tetrasodium EDTA, reference compound], the “Final PAA Concentration (%)” value was 0.28% in series [1] (chelant concentration 0.1%), 0.18% in series [1] (chelant concentration 0.4%), 0.21% in series [2] (chelant concentration 0.1%) and 0.14% in series [2] (chelant concentration 0.4%). Also, the “Δ PAA %” value in series [1] (chelant concentration 0.1%) is reported as −20%; in series [1] (chelant concentration 0.4%) it was −49%; in series [2] (chelant concentration 0.1%), −40%; in series [2] (chelant concentration 0.4%), −60%.

Turning to `O=C([O-])CC(O)(CC(=O)[O-])C(=O)[O-].[Na+].[Na+].[Na+]` [sodium citrate, reference compound], in series [1] (chelant concentration 0.4%), the “Final PAA Concentration (%)” value is 0.26% and the “Δ PAA %” value is −26%. For the same compound, in series [2] (chelant concentration 0.4%), the “Final PAA Concentration (%)” value was 0.23% and the “Δ PAA %” value is −34%.

As for `CC(C(=O)[O-])N(CC(=O)[O-])CC(=O)[O-].[Na+].[Na+].[Na+]` (stereo not drawn) [Trilon M (liquid), methylglycinediacetic acid trisodium salt], the “Final PAA Concentration (%)” value turned out to be 0.3% in series [1] (chelant concentration 0.2%), 0.26% in series [1] (chelant concentration 0.6%) and 0.19% in series [2] (chelant concentration 0.6%). Besides, the results for the “Δ PAA %” value in series [1] (chelant concentration 0.2%), in series [1] (chelant concentration 0.6%) and in series [2] (chelant concentration 0.6%) were −14%, −26% and −46%, respectively.

On to `O=C([O-])CC[C@@H](C(=O)[O-])N(CC(=O)[O-])CC(=O)[O-].[Na+].[Na+].[Na+].[Na+]` [Dissolvine (liquid), glutamic acid diacetic acid tetrasodium salt], for which the “Final PAA Concentration (%)” value in series [1] (chelant concentration 0.2%) is 0.29%; in series [1] (chelant concentration 0.6%) it was 0.25%; in series [2] (chelant concentration 0.2%), 0.23%; in series [2] (chelant concentration 0.6%) it was 0.17%. Moreover, the “Δ PAA %” value is −17% in series [1] (chelant concentration 0.2%), −29% in series [1] (chelant concentration 0.6%), −34% in series [2] (chelant concentration 0.2%) and −51% in series [2] (chelant concentration 0.6%).

Consider `O=C([O-])CN(CCN(CC(=O)[O-])CC(=O)[O-])CCN(CC(=O)[O-])CC(=O)[O-].[Na+].[Na+].[Na+].[Na+].[Na+]` [Trilon C (liquid), diethylenetriaminepentaacetic acid pentasodium salt], for which the “Final PAA Concentration (%)” value was found to be 0.26% in series [1] (chelant concentration 0.2%) and 0.22% in series [2] (chelant concentration 0.2%). In addition, the “Δ PAA %” value is −26% in series [1] (chelant concentration 0.2%) and −37% in series [2] (chelant concentration 0.2%).
